The text below walks through data of patent US20090030024A1, “THIAZOLES AS FUNGICIDES” (priority 2005, published 2009).

One data set in a line: logP determination by retention times (calibration with alkan-2-ones). The settings on record: * HPLC reversed-phase C18, 40° C., mobile phase 0.1% aqueous formic acid and acetonitrile, linear gradient 10% to 95% acetonitrile.
Regarding `CNc1nc(C)c(-c2ccnc(Nc3ccc(OC(C)=O)cc3)n2)s1` [Example 754, 4-({4-[4-methyl-2-(methylamine)-1,3-thiazol-5-yl]pyrimidin-2-yl}amino)phenylacetate], the logP was 1.73*. For `Cc1nc(N(C)C)sc1-c1ccnc(Nc2ccc(N3CCCC3=O)cc2)n1` [Example 761, 1-[4-({4-[2-(dimethylamine)-4-methyl-1,3-thiazol-5-yl]pyrimidin-2-yl}amino)phenyl]pyrrolidin-2-one], the logP was 1.6*. As to `CC(=O)Nc1cccc(Nc2nccc(-c3sc(N(C)C)nc3C)n2)c1` [Example 762, N-[3-({4-[2-(dimethylamine)-4-methyl-1,3-thiazol-5-yl]pyrimidin-2-yl}amino)phenyl]acetamide], the logP is listed as 1.42*. Turning to `CC(=O)c1ccc(Nc2nccc(-c3sc(N(C)C)nc3C(F)(F)F)n2)cc1` [Example 769, 1-[4-({4-[2-(dimethylamine)-4-(trifluoromethyl)-1,3-thiazol-5-yl]pyrimidin-2-yl}amino)phenyl]ethanone], the logP is reported as 3.44*. Regarding `CN(C)c1nc(C(F)(F)F)c(-c2ccnc(Nc3ccc(N4CCCC4=O)cc3)n2)s1` [Example 770, 1-[4-({4-[2-(dimethylamine)-4-(trifluoromethyl)-1,3-thiazol-5-yl]pyrimidin-2-yl}amino)phenyl]pyrrolidin-2-one], the logP is given as 2.99*. With `Cc1nc(N(C)C)sc1-c1ccnc(Nc2ccc3c(c2)OC(F)(F)C(F)(F)O3)n1` [Example 774, 4-[2-(dimethylamine)-4-methyl-1,3-thiazol-5-yl]-N-(2,2,3,3-tetrafluoro-2,3-dihydro-1,4-benzodioxin-6-yl)pyrimidine-2-amine], the logP is 3.6*. Turning to `CN(C)c1nc(C(F)(F)F)c(-c2ccnc(Nc3cccc(N4CCCC4=O)c3)n2)s1` [Example 775, 1-[3-({4-[2-(dimethylamine)-4-(trifluoromethyl)-1,3-thiazol-5-yl]pyrimidin-2-yl}amino)phenyl]pyrrolidin-2-one], the logP is reported as 3.07*. On to `CN(C)c1nc(C(F)(F)F)c(-c2ccnc(Nc3ccc(F)cc3)n2)s1` [Example 777, 4-[2-(dimethylamine)-4-(trifluoromethyl)-1,3-thiazol-5-yl]-N-(4-fluorophenyl)pyrimidine-2-amine], for which the logP is 3.96*. Take `CN(C)c1nc(C(F)(F)F)c(-c2ccnc(Nc3ccc(I)cc3)n2)s1` [Example 778, 4-[2-(dimethylamine)-4-(trifluoromethyl)-1,3-thiazol-5-yl]-N-(4-iodophenyl)pyrimidine-2-amine]: the logP is 4.88*. Take `CN(C)c1nc(C(F)(F)F)c(-c2ccnc(Nc3ccc4c(c3)OC(F)(F)O4)n2)s1` [Example 779, N-(2,2-difluoro-1,3-benzodioxol-5-yl)-4-[2-(dimethylamine)-4-(trifluoromethyl)-1,3-thiazol-5-yl]pyrimidine-2-amine]: the logP is on record as 4.72*. Same read-out and setting: then `CN(C)c1nc(C(F)(F)F)c(-c2ccnc(Nc3ccc4c(c3)OC(F)(F)C(F)(F)O4)n2)s1` [Example 780, 4-[2-(dimethylamine)-4-(trifluoromethyl)-1,3-thiazol-5-yl]-N-(2,2,3,3-tetrafluoro-2,3-dihydro-1,4-benzodioxin-6-yl)pyrimidine-2-amine], with 5.28*; and `Cc1nc(N(C)C)sc1-c1ccnc(Nc2cccc(N3CCCC3=O)c2)n1` [Example 782, 1-[3-({4-[2-(dimethylamine)-4-methyl-1,3-thiazol-5-yl]pyrimidin-2-yl}amino)phenyl]pyrrolidin-2-one], with 1.65*; and `COc1ccc(Nc2nccc(-c3sc(N(C)C)nc3C(F)(F)F)n2)cn1` [Example 783, 4-[2-(dimethylamine)-4-(trifluoromethyl)-1,3-thiazol-5-yl]-N-(6-methoxypyridin-3-yl)pyrimidine-2-amine], with 3.17*. On to `COc1ccc(Nc2nccc(-c3sc(N(C)C)nc3C)n2)cn1` [Example 785, 4-[2-(dimethylamine)-4-methyl-1,3-thiazol-5-yl]-N-(6-methoxypyridin-3-yl)pyrimidine-2-amine], for which the logP is 1.55*.

The same data set, now with this note: logP, * HPLC reversed-phase C18, 40° C., mobile phase 0.1% aqueous formic acid and acetonitrile, linear gradient 10% to 95% acetonitrile.
For `COCCNc1nc(C)c(-c2ccnc(Nc3ccc(C(C)=O)cc3)n2)s1` [Example 751, 1-{4-[(4-{2-[(2-methoxyethyl)amino]-4-methyl-1,3-thiazol-5-yl}pyrimidin-2-yl)amino]phenyl}ethanone], the chromatographic logP was determined as 1.72. As for `COCCNc1nc(C)c(-c2ccnc(Nc3ccc(N4CCCC4=O)cc3)n2)s1` [Example 752, 1-{4-[(4-{2-[(2-methoxyethyl)amino]-4-methyl-1,3-thiazol-5-yl}pyrimidin-2-yl)amino]phenyl}pyrrolidin-2-one], the chromatographic logP amounted to 1.51. `CCc1nc(C)c(-c2ccnc(Nc3ccc(F)c(F)c3)n2)s1` [Example 755, N-(3,4-difluorophenyl)-4-(2-ethyl-4-methyl-1,3-thiazol-5-yl)pyrimidine-2-amine]: the chromatographic logP stood at 3.44. As for `Cc1nc(C)c(-c2ccnc(Nc3ccc(F)c(F)c3)n2)s1` [Example 756, N-(3,4-difluorophenyl)-4-(2,4-dimethyl-1,3-thiazol-5-yl)pyrimidine-2-amine], the chromatographic logP turned out to be 2.99. With `Cc1nc(C(F)F)c(-c2ccnc(Nc3cccc(Cl)c3)n2)s1` [Example 757, N-(3-chlorophenyl)-4-[4-(difluoromethyl)-2-methyl-1,3-thiazol-5-yl]pyrimidine-2-amine], the chromatographic logP was 1.41.

The compound `Cc1nc(C(F)F)c(-c2ccnc(Nc3ccc(CNC(=O)OC(C)(C)C)cc3)n2)s1` [Example 758, tert-butyl-[4-({4-[4-(difluoromethyl)-2-methyl-1,3-thiazol-5-yl]pyrimidin-2-yl}amino)benzyl]carbamate] yielded a chromatographic logP of 3.2. `CCc1nc(C)c(-c2ccnc(Nc3ccc(F)cc3F)n2)s1` [Example 760, N-(2,4-difluorophenyl)-4-(2-ethyl-4-methyl-1,3-thiazol-5-yl)pyrimidine-2-amine]: the chromatographic logP stood at 3.27. In the case of `COCc1nc(C)c(-c2ccnc(Nc3ccc(O)cc3)n2)s1` [Example 763, 4-({4-[2-(methoxymethyl)-4-methyl-1,3-thiazol-5-yl]pyrimidin-2-yl}amino)phenol], the chromatographic logP was 1.8. Still for that read-out and setting: then `COCc1nc(C)c(-c2ccnc(Nc3cc(OC)cc(OC)c3)n2)s1` [Example 764, N-(3,5-dimethoxyphenyl)-4-[2-(methoxymethyl)-4-methyl-1,3-thiazol-5-yl]pyrimidine-2-amine], with 2.73.

For the compound `COCCCOC(=O)c1ccc(Nc2nccc(-c3sc(COC)nc3C)n2)cc1` [Example 765, 3-methoxypropyl-4-({4-[2-(methoxymethyl)-4-methyl-1,3-thiazol-5-yl]pyrimidin-2-yl}amino)benzoate], the chromatographic logP came out at 2.63. Same read-out and setting: then `CCCc1nc(C)c(-c2ccnc(Nc3ccccc3)n2)s1` [Example 766, 4-(4-methyl-2-propyl-1,3-thiazol-5-yl)-N-phenylpyrimidine-2-amine], with 3.49. Still for that read-out and setting: for `CCCc1nc(C)c(-c2ccnc(Nc3cccc(C(C)=O)c3)n2)s1` [Example 767, 1-(3-{[4-(4-methyl-2-propyl-1,3-thiazol-5-yl)pyrimidin-2-yl]amino}phenyl)ethanone] the value was 3.04; for `CCCc1nc(C)c(-c2ccnc(Nc3cc(OC)c(OC)c(OC)c3)n2)s1` [Example 768, 4-(4-methyl-2-propyl-1,3-thiazol-5-yl)-N-(3,4,5-trimethoxyphenyl)pyrimidine-2-amine], 2.93. In the case of `COCC(C)Nc1nc(C)c(-c2ccnc(Nc3cccc(N4CCCC4=O)c3)n2)s1` (stereo not shown) [Example 772, 1-{3-[(4-{2-[(2-methoxy-1-methylethyl)amino]-4-methyl-1,3-thiazol-5-yl}pyrimidin-2-yl)amino]phenyl}pyrrolidin-2-one], the chromatographic logP stood at 1.68. `COCCNc1nc(C)c(-c2ccnc(Nc3cccc([N+](=O)[O-])c3)n2)s1` [Example 781, 4-{2-[(2-methoxyethyl)amino]-4-methyl-1,3-thiazol-5-yl}-N-(3-nitrophenyl)pyrimidine-2-amine] displayed a chromatographic logP of 1.97.

`COCCNc1nc(C)c(-c2ccnc(Nc3ccc(OC)nc3)n2)s1` [Example 784, 4-{2-[(2-methoxyethyl)amino]-4-methyl-1,3-thiazol-5-yl}-N-(6-methoxypyridin-3-yl)pyrimidine-2-amine] displayed a chromatographic logP of 1.45. Same read-out and setting: for `COc1cc(Nc2nccc(-c3cnc(-c4ccccc4)s3)n2)cc(OC)c1OC` [Example 786, 4-(2-phenyl-1,3-thiazol-5-yl)-N-(3,4,5-trimethoxyphenyl)pyrimidine-2-amine] the value was 3.37. `c1ccc(Nc2nccc(-c3cnc(-c4ccccc4)s3)n2)cc1` [Example 787, N-phenyl-4-(2-phenyl-1,3-thiazol-5-yl)pyrimidine-2-amine] gave a chromatographic logP of 3.97. In turn, `COc1ccc(Nc2nccc(-c3sc(C)nc3C)n2)cc1` [Example 788, 4-(2,4-dimethyl-1,3-thiazol-5-yl)-N-(4-methoxyphenyl)pyrimidine-2-amine] had a chromatographic logP of 2.34. On the same count and under the same terms, then `CCc1nc(C)c(-c2ccnc(Nc3ccc(OC)cc3)n2)s1` [Example 789, 4-(2-ethyl-4-methyl-1,3-thiazol-5-yl)-N-(4-methoxyphenyl)pyrimidine-2-amine], with 2.78; and `COc1ccc(Nc2nccc(-c3sc(C)nc3C)n2)cc1O` [Example 790, 5-{[4-(2,4-dimethyl-1,3-thiazol-5-yl)pyrimidin-2-yl]amino}-2-methoxyphenol], with 1.79. Regarding `CCc1nc(C)c(-c2ccnc(Nc3ccc(OC)c(O)c3)n2)s1` [Example 791, 5-{[4-(2-ethyl-4-methyl-1,3-thiazol-5-yl)pyrimidin-2-yl]amino}-2-methoxyphenol], the chromatographic logP amounted to 2.09. Compound `COc1cc(Nc2nccc(-c3cnc(-c4ccc(Cl)cc4)s3)n2)cc(OC)c1OC` [Example 792, 4-[2-(4-chlorophenyl)-1,3-thiazol-5-yl]-N-(3,4,5-trimethoxyphenyl)pyrimidine-2-amine] registered a chromatographic logP of 4.12.

Broadly, the chromatographic logP is a lipophilicity value derived from retention on a column.
